# Assay results as given in patent publication US20110105538A1, “DRUG RESPONSE MARKERS” (GUY'S & ST THOMAS'S NHS FOUNDATION TRUST, priority 2008, published 2011).
# Like-named read-outs stand apart in the source and are kept apart here.
# Tests used:
# [1] = tested on: patients with Inflammatory Bowel Disease; conditions: for Genotype frequencies: Insertion no / Genotype frequencies: Insertion yes: number of patients (%); for Allelic frequencies: Deletion allele / Allelic frequencies: Insertion Allele: number of alleles (%)
# [2] = tested on: patients with Inflammatory Bowel Disease; conditions: for Allele frequencies: Deletion allele / Allele frequencies: Insertion Allele: number of alleles (%); for Genotype: Insertion no / Genotype: Insertion yes / Genotype frequencies: Insertion no / Genotype frequencies: Insertion yes: number of patients
# [3] = tested on: patients with IBD (Inflammatory Bowel Disease); experiment: Prospective cohort starting 2 mg/kg AZA for IBD (Example 2): response versus AOX3404A>G, TPMT activity and HLA-G markers
# [4] = number of patients with side effect
# [5] = Crohn's Disease Patients, Outcome Failure
# [6] = Crohn's Disease Patients, Outcome Response
# [7] = Ulcerative Colitis Patients, Outcome Failure
# [8] = Ulcerative Colitis Patients, Outcome Response
# [9] = of cohort of 182 patients starting 2 mg/kg
compound,measurement,setting,value
CN(Cc1cnc2nc(N)nc(N)c2n1)c1ccc(C(=O)N[C@@H](CCC(=O)O)C(=O)O)cc1 [methotrexate],association between side effects and folate supplementation,"[1]; 94 patients on folate, 39 never on folate",No association
same,Genotype frequencies: Insertion no,[1]; Outcome Fail (91 pts.),21 (23%%)
same,Genotype frequencies: Insertion yes,[1]; Outcome Fail (91 pts.),70 (77%)
same,Allelic frequencies: Deletion allele,[1]; Outcome Failure,86 (47%)
same,Allelic frequencies: Insertion Allele,[1]; Outcome Failure,96 (52%)
same,Genotype frequencies: Insertion no,[1]; Outcome Response (91 pts.),40 (44%)
same,Genotype frequencies: Insertion yes,[1]; Outcome Response (91 pts.),51 (56%)
same,Allelic frequencies: Deletion allele,[1]; Outcome Response,113 (62%)
same,Allelic frequencies: Insertion Allele,[1]; Outcome Response,69 (37%)
same,Fisher's exact test OR,"[1]; allelic frequencies, response vs failure",OR = 1.8
same,Fisher's exact test OR,"[1]; genotype frequencies, response vs fail","OR = 2.6,"
same,patients developed side effects,[1]; methotrexate group,45 patients
same,patients withdrawn from therapy as a direct consequence of their side-effect,[1]; methotrexate group,21 patients
same,abdominal pain,[1]; [4],one
same,alopecia,[1]; [4],one
same,haematological abnormalities including neutropenia,[1]; [4],four
same,minor infections,[1]; [4],four
same,mucositis,[1]; [4],two
same,muscle and joint pains,[1]; [4],three
same,nausea,[1]; [4],16
same,skin rash,[1]; [4],three
same,transient LFT abnormalities,[1]; [4],10
same,patients responded to treatment (percent),[1]; of 187 patients completing at least three months of therapy,51%
same,patients responded to treatment,"[1]; of 187 patients completing at least three months of therapy, response = steroid withdrawal or documented efficacy",97 patients
same,response to treatment between administration regimes,[1]; oral vs subcutaneous vs intramuscular induction progressing to oral,no difference in the response to treatment
Cn1cnc([N+](=O)[O-])c1Sc1ncnc2nc[nH]c12 [azathioprine],Allele frequencies: Deletion allele,"[2]; All Patients, Outcome Failure",50 (64%)
same,Allele frequencies: Insertion Allele,"[2]; All Patients, Outcome Failure",30 (36%)
same,Allele frequencies: Deletion allele,"[2]; All Patients, Outcome Response",39 (34%)
same,Allele frequencies: Insertion Allele,"[2]; All Patients, Outcome Response",75 (65%)
same,Genotype: Insertion no,"[2]; CD, Fail",2
same,Genotype: Insertion yes,"[2]; CD, Fail",17
same,Genotype: Insertion no,"[2]; CD, Response",15
same,Genotype: Insertion yes,"[2]; CD, Response",14
same,Allele frequencies: Deletion allele,[2]; [5],14 (37%)
same,Allele frequencies: Insertion Allele,[2]; [5],24 (63%)
same,Allele frequencies: Deletion allele,[2]; [6],45 (69%)
same,Allele frequencies: Insertion Allele,[2]; [6],18 (31%)
same,Genotype: Insertion no,"[2]; UC, Fail",3
same,Genotype: Insertion yes,"[2]; UC, Fail",18
same,Genotype: Insertion no,"[2]; UC, Response",10
same,Genotype: Insertion yes,"[2]; UC, Response",18
same,Allele frequencies: Deletion allele,[2]; [7],16 (38%)
same,Allele frequencies: Insertion Allele,[2]; [7],26 (62%)
same,Allele frequencies: Deletion allele,[2]; [8],45 (62%)
same,Allele frequencies: Insertion Allele,[2]; [8],21 (37%)
same,Genotype frequencies: Insertion no,"[2]; all patients, Outcome Fail",21
same,Genotype frequencies: Insertion yes,"[2]; all patients, Outcome Fail",30
same,Genotype frequencies: Insertion no,"[2]; all patients, Outcome Response",50
same,Genotype frequencies: Insertion yes,"[2]; all patients, Outcome Response",32
same,Fisher's exact test OR,"[2]; allele frequencies, All Patients",OR = 3.2
same,Fisher's exact test OR,"[2]; allele frequencies, Crohn's Disease Patients",OR = 4.2
same,Fisher's exact test OR,"[2]; allele frequencies, Ulcerative Colitis Patients",OR = 3.4
same,Fisher's exact test OR,"[2]; genotype frequencies, all patients","OR = 2.2,"
same,Fisher's exact test OR,"[2]; genotype, CD","OR = 9,"
same,Fisher's exact test OR,"[2]; genotype, UC","OR = 3,"
same,patients identified as responders to therapy,"[2]; of 100 patients completing minimum three months, steroid withdrawal and Harvey Bradshaw index less than four",50 patients
same,withdrew due to intolerable side-effects,[2]; of the 140 patients recruited,40
same,non-responders,[3]; [9],44
same,responders,[3]; [9],66
same,those discontinuing treatment due to side effects,[3]; [9],72
same,chance of responding,[3]; those with all adverse predictors,14%
same,chance of responding,[3]; those with no adverse predictors,95%
